Assay results: patent US11608501B2, “Methods for modifying RNA splicing” (PTC THERAPEUTICS, INC., priority 2017, dated 2023)

Columns and labels:
[1] = test system: RNA having an intronic REMS sequence; assay: RNA sequencing of compound-treated cells: iExon inclusion or eExon formation (ΔPSI, Fisher's Exact Test); assay type: cell-based; conditions: cells treated with Compound 64 (24 nm and 100 nm); genes listed in Table 10; adjusted Fisher's Exact Test p value
Experimental: Techniques known to one skilled in the art may be used to determine the amount of an RNA transcript(s). In some aspects, the amount of one, two, three or more RNA transcripts is measured using deep sequencing, such as ILLUMINA® RNASeq, ILLUMINA® next generation sequencing (NGS), ION TORRENT® RNA next generation sequencing, 454™ pyrosequencing, or Sequencing by Oligo Ligation Detection (SOLID™), Single Molecule, Real-Time (SMRT) sequencing, Nanopore sequencing. In other aspects, the amount of multiple RNA transcripts is measured using an exon array, such as the GENECHIP® human exon array. In certain aspects, the amount of one, two, three or more RNA transcripts is determined by RT-PCR. In other aspects, the amount of one, two, three or more RNA transcripts is measured by RT-qPCR or digital color-coded barcode technology. Techniques for conducting these assays are known to one skilled in the art. […]
Where “U” represents the value for probability of iExon inclusion (a+b)/2/[(a+b)/2+c] in the absence of the compound; and, where “C” represents the value for probability of iExon inclusion (a+b)/2/[(a+b)/2+c] in the presence of the compound. The values for “a” and “b” represent the number of reads supporting inclusion of an iExon in an RNA transcript. […] The value for “c” represents the number of reads supporting exclusion of an iExon. […]

[2] = test system: SH-SY5Y cells; assay: Endpoint RT-PCR of alternatively spliced mRNAs (iExon inclusion) in cultured cells; assay type: cell-based, human; conditions: cells treated at 10 nM, 1 μM or 10 μM vs DMSO; genes of FIGS. 2A-6A
Experimental: SH-SY5Y cells derived from a bone marrow biopsy of a patient with neuroblastoma were plated at 600,000 cells/well in 2 mL DMEM with 10% FBS in 6-well plates, and incubated for 4 hours in a cell culture incubator (37° C., 5% CO2, 100% relative humidity). Cells were then treated with Compound 64 at different concentrations (in 0.1% DMSO) for 24 hours. After removal of the supernatant, cells were lysed in RLT buffer with ß-mercaptoethanol and total RNA was extracted according to the manufacturer's protocol (RNeasy Mini Kit, Qiagen, Inc.).
One-step RT-PCR was performed using AgPath-ID™ One-Step RT-PCR Reagents (Life Technologies, Inc.) using 50 ng total RNA as input. The following PCR conditions were used: Step 1: 48° C. (15 min), Step 2: 95° C. (10 min), Step 3: 95° C. (30 sec), Step 4: 55° C. (30 sec), Step 5: 68° C. (1 min), repeat Steps 3 to 5 for 34 cycles, then hold at 4° C. The presence of iExons within alternatively spliced mRNAs was identified using primers listed in Tables 13 through 19, which correspond to FIGS. 2, 3, 4 and 5. PCR products were separated on 2% agarose E-gels (Life Technologies, Inc.), stained with ethidium bromide and visualized using a gel imager (UVP). […]

## CC1(C)CC(Oc2ccc(-c3ccc(-c4cn[nH]c4)cc3O)nn2)CC(C)(C)N1 [Compound 64, 5-(1H-pyrazol-4-yl)-2-(6-((2,2,6,6-tetramethylpiperidin-4-yl)oxy)pyridazin-3-yl)phenol]
[1]
  effect on inclusion of an iExon or formation of an eExon with a corresponding change in isoform abundance: statistically significant
[2]
  iExon-containing PCR product on agarose gel: appearance of a slower migrating PCR product containing the intronic-derived exon
